Data reported in patent publication US10681908B2, “Molecules having pesticidal utility, and intermediates, compositions, and processes, related thereto” (Dow AgroSciences LLC, priority 2016, dated 2020).

Assays:
[1] = test system: Beet Armyworm (Spodoptera exigua, LAPHEG); test: Bioassay on Beet Armyworm (BAW), 128-well diet tray assay; format: in vivo; settings: for mortality at 50 µg/cm2: 168 h, 50 μg/cm^2 on artificial diet, second instar larvae, five to seven days, 25° C., read-out: BAW % Control (or Mortality) rating
Experimental: (§1) Example A: Bioassays on Beet Armyworm (Spodoptera Exigua, LAPHEG) (“BAW”), Corn Earworm (Helicoverpa zea, HELIZE) (“CEW”), and Cabbage Looper (Trichoplusia ni, TRIPNI) (“CL”)
(§2) Certain molecules disclosed in this document were tested against BAW, CEW, and CL using procedures described in the following examples. In the reporting of the results, the “BAW, CEW, & CL Rating Table” was used (See Table Section).
Bioassays on BAW were conducted using a 128-well diet tray assay. One to five second instar BAW larvae were placed in each well (3 mL) of the diet tray that had been previously filled with 1 mL of artificial diet to which 50 μg/cm^2 of the test molecule (dissolved in 50 μL of 90:10 acetone-water mixture) had been applied (to each of eight wells) and then allowed to dry. Trays were covered with a clear self-adhesive cover and held at 25° C., 14:10 light-dark for five to seven days. Percent mortality was recorded for the larvae in each well; activity in the eight wells was then averaged. The results are indicated in the table entitled “Table ABC: Biological Results” (See Table Section).
(§3) Bioassays on BAW and CL were conducted according to the procedures outlined in Example A: Bioassays on Beet Armyworm (“BAW”) and Cabbage Looper (“CL”) using the indicated concentrations.

[2] = test system: Cabbage Looper (Trichoplusia ni, TRIPNI); test: Bioassay on Cabbage Looper (CL), 128-well diet tray assay; format: in vivo; settings: for mortality at 50 µg/cm2: 168 h, 50 μg/cm^2 on artificial diet, second instar larvae, five to seven days, 25° C., read-out: CL % Control (or Mortality) rating
Experimental: as §1, §2
Bioassays on CL were conducted using a 128-well diet tray assay. One to five second instar CL larvae were placed in each well (3 mL) of the diet tray that had been previously filled with 1 mL of artificial diet to which 50 μg/cm^2 of the test molecule (dissolved in 50 μL of 90:10 acetone-water mixture) had been applied (to each of eight wells) and then allowed to dry. Trays were covered with a clear self-adhesive cover and held at 25° C., 14:10 light-dark for five to seven days. Percent mortality was recorded for the larvae in each well; activity in the eight wells was then averaged. The results are indicated in the table entitled “Table ABC: Biological Results” (See Table Section).
as §3

Work on CSC[C@@H](C)NC(=O)c1ccc(/C(F)=C/C(c2cc(Cl)c(Cl)c(Cl)c2)C(F)(F)F)cc1C(F)(F)F (stereo partly drawn) [F75, N—((R)-1-(Methylthio)propan-2-yl)-4-((Z)-1,4,4,4-tetrafluoro-3-(3,4,5-trichlorophenyl)but-1-en-1-yl)-2-(trifluoromethyl)benzamide] yielded a mortality at 50 µg/cm2 [1] of 50 to 100% and a mortality at 50 µg/cm2 [2] of 50 to 100%.

For C[C@H](CSCC(F)(F)F)NC(=O)c1ccc(/C(F)=C/C(c2ccc(Cl)c(Cl)c2)C(F)(F)F)cc1Br (stereo partly drawn) [F58, 2-Bromo-4-((Z)-3-(3,4-dichlorophenyl)-1,4,4,4-tetrafluorobut-1-en-1-yl)-N—((R)-1-((2,2,2-trifluoroethyl)thio)propan-2-yl)benzamide], the mortality at 50 µg/cm2 [1] was 50 to 100% and the mortality at 50 µg/cm2 [2] was 50 to 100%.

Work on C[C@H](CSCC(F)F)NC(=O)c1ccc(/C(F)=C/C(c2cc(Cl)c(Cl)c(Cl)c2)C(F)(F)F)cc1C(F)(F)F (stereo partly drawn) [F82, N—((R)-1-((2,2-Difluoroethyl)thio)propan-2-yl)-4-((Z)-1,4,4,4-tetrafluoro-3-(3,4,5-trichlorophenyl)but-1-en-1-yl)-2-(trifluoromethyl)benzamide] yielded a mortality at 50 µg/cm2 [1] of 50 to 100% and a mortality at 50 µg/cm2 [2] of 50 to 100%.

Molecule CSC(C)C(C)NC(=O)c1ccc(/C(F)=C/C(c2cc(Cl)c(Cl)c(Cl)c2)C(F)(F)F)cc1C(F)(F)F (centres unmarked) [F101, (Z)—N-(3-(methylthio)butan-2-yl)-4-(1,4,4,4-tetrafluoro-3-(3,4,5-trichlorophenyl)but-1-en-1-yl)-2-(trifluoromethyl)benzamide] has a mortality at 50 µg/cm2 [1] of 50 to 100% and a mortality at 50 µg/cm2 [2] of 50 to 100%.

Work on C[C@H](CS(=O)(=O)CC(F)(F)F)NC(=O)c1ccc(/C(F)=C/C(c2cc(Cl)cc(OC(F)(F)F)c2)C(F)(F)F)cc1C(F)(F)F (stereo partly drawn) [F110, 4-((Z)-3-(3-Chloro-5-(trifluoromethoxy)phenyl)-1,4,4,4-tetrafluorobut-1-en-1-yl)-N—((R)-1-((2,2,2-trifluoroethyl)sulfonyl)propan-2-yl)-2-(trifluoromethyl)benzamide] yielded a mortality at 50 µg/cm2 [1] of 50 to 100% and a mortality at 50 µg/cm2 [2] of 50 to 100%.

In the case of CC(CNC(=O)c1ccc(/C(F)=C/C(c2cc(Cl)c(Cl)c(Cl)c2)C(F)(F)F)cc1C(F)(F)F)S(C)(=O)=O (centres unmarked) [F124, (Z)—N-(2-(methylsulfonyl)propyl)-4-(1,4,4,4-tetrafluoro-3-(3,4,5-trichlorophenyl)but-1-en-1-yl)-2-(trifluoromethyl)benzamide], the mortality at 50 µg/cm2 [1] was 50 to 100% and the mortality at 50 µg/cm2 [2] was 50 to 100%.

Molecule C[C@H](CSCC#N)NC(=O)c1ccc(/C(F)=C/C(c2cc(Cl)c(Cl)c(Cl)c2)C(F)(F)F)cc1C(F)(F)F (stereo partly drawn) [F83, N—((R)-1-((Cyanomethyl)thio)propan-2-yl)-4-((Z)-1,4,4,4-tetrafluoro-3-(3,4,5-trichlorophenyl)but-1-en-1-yl)-2-(trifluoromethyl)benzamide] has a mortality at 50 µg/cm2 [1] of 50 to 100% and a mortality at 50 µg/cm2 [2] of 50 to 100%.

For C[C@H](CSCC(F)(F)F)NC(=O)c1ccc(/C(F)=C/C(c2cc(Cl)c(Cl)c(Cl)c2)C(F)(F)F)cc1Br (stereo partly drawn) [F7, 2-Bromo-4-((Z)-1,4,4,4-tetrafluoro-3-(3,4,5-trichlorophenyl)but-1-en-1-yl)-N—((R)-1-((2,2,2-trifluoroethyl)thio)propan-2-yl)benzamide], the mortality at 0.05 µg/cm2 ([1]; 0.05 μg/cm^2, Table CD2 comparative data, read-out: Percent control (or mortality) BAW) was 0%, the mortality at 0.5 µg/cm2 ([1]; 0.5 μg/cm^2, Table CD2 comparative data, read-out: Percent control (or mortality) BAW) was 100% and the mortality at 5 µg/cm2 ([1]; 5 μg/cm^2, Table CD2 comparative data, read-out: Percent control (or mortality) BAW) was 100%. It also gave a mortality at 50 µg/cm2 [1] of 50 to 100%, a mortality at 0.05 µg/cm2 ([2]; 0.05 μg/cm^2, Table CD2 comparative data, read-out: Percent control (or mortality) CL) of 0% and a mortality at 0.5 µg/cm2 ([2]; 0.5 μg/cm^2, Table CD2 comparative data, read-out: Percent control (or mortality) CL) of 56%. It also gave a mortality at 5 µg/cm2 ([2]; 5 μg/cm^2, Table CD2 comparative data, read-out: Percent control (or mortality) CL) of 100% and a mortality at 50 µg/cm2 [2] of 50 to 100%.

C[C@H](CS(C)(=O)=O)NC(=O)c1ccc(/C(F)=C/C(c2cc(Cl)c(Cl)c(Cl)c2)C(F)(F)F)cc1C(F)(F)F (stereo partly drawn) [F87, N—((R)-1-(methylsulfonyl)propan-2-yl)-4-((Z)-1,4,4,4-tetrafluoro-3-(3,4,5-trichlorophenyl)but-1-en-1-yl)-2-(trifluoromethyl)benzamide] was tested, and the mortality at 50 µg/cm2 [1] was 50 to 100% and the mortality at 50 µg/cm2 [2] was 50 to 100%.

C[C@H](CS(=O)(=O)CC(F)(F)F)NC(=O)c1ccc(/C(F)=C/C(c2cc(Cl)c(Cl)c(Cl)c2)C(F)(F)F)cc1Cl (stereo partly drawn) [F11, 2-Chloro-4-((Z)-1,4,4,4-tetrafluoro-3-(3,4,5-trichlorophenyl)but-1-en-1-yl)-N—((R)-1-((2,2,2-trifluoroethyl)sulfonyl)propan-2-yl)benzamide] gave a mortality at 50 µg/cm2 [1] of 50 to 100% and a mortality at 50 µg/cm2 [2] of 50 to 100%.

With C[C@H](CSCC(F)(F)F)NC(=O)c1ccc(/C(F)=C/C(c2cc(Cl)c(Cl)c(Cl)c2)C(C)(F)F)cc1C(F)(F)F (stereo partly drawn) [F15, 4-((Z)-1,4,4-Trifluoro-3-(3,4,5-trichlorophenyl)pent-1-en-1-yl)-N—((R)-1-((2,2,2-trifluoroethyl)thio)propan-2-yl)-2-(trifluoromethyl)benzamide] the mortality at 50 µg/cm2 [1] was 50 to 100% and the mortality at 50 µg/cm2 [2] was 50 to 100%.

With C[C@H](CS(=O)(=O)CC(F)(F)F)NC(=O)c1ccc(/C(F)=C/C(c2cc(F)c(Cl)c(C(F)(F)F)c2)C(F)(F)F)cc1C(F)(F)F (stereo partly drawn) [F71, 4-((Z)-3-(4-Chloro-3-fluoro-5-(trifluoromethyl)phenyl)-1,4,4,4-tetrafluorobut-1-en-1-yl)-N—((R)-1-((2,2,2-trifluoroethyl)sulfonyl)propan-2-yl)-2-(trifluoromethyl)benzamide] the mortality at 50 µg/cm2 [1] was 50 to 100% and the mortality at 50 µg/cm2 [2] was 50 to 100%.

C[C@H](CS(=O)(=O)CC(F)(F)F)NC(=O)c1ccc(/C(F)=C/C(c2cc(Cl)cc(C(C)(F)F)c2)C(F)(F)F)cc1C(F)(F)F (stereo partly drawn) [F120, 4-((Z)-3-(3-Chloro-5-(1,1-difluoroethyl)phenyl)-1,4,4,4-tetrafluorobut-1-en-1-yl)-N—((R)-1-((2,2,2-trifluoroethyl)sulfonyl)propan-2-yl)-2-(trifluoromethyl)benzamide] was tested, and the mortality at 50 µg/cm2 [1] was 50 to 100% and the mortality at 50 µg/cm2 [2] was 50 to 100%.

For C[C@H](CS(=O)(=O)CC(F)(F)F)NC(=O)c1ccc(/C(F)=C/C(c2cc(Cl)c(Cl)c(Cl)c2)C(F)(F)F)cc1Br (stereo partly drawn) [F8, 2-Bromo-4-((Z)-1,4,4,4-tetrafluoro-3-(3,4,5-trichlorophenyl)but-1-en-1-yl)-N—((R)-1-((2,2,2-trifluoroethyl)sulfonyl)propan-2-yl)benzamide], the mortality at 50 µg/cm2 [1] was 50 to 100% and the mortality at 50 µg/cm2 [2] was 50 to 100%.

C=Cc1cc(Cl)cc(C(/C=C(\F)c2ccc(C(=O)N[C@H](C)CS(=O)(=O)CC(F)(F)F)c(C(F)(F)F)c2)C(F)(F)F)c1 (stereo partly drawn) [F112, 4-((Z)-3-(3-Chloro-5-vinylphenyl)-1,4,4,4-tetrafluorobut-1-en-1-yl)-N—((R)-1-((2,2,2-trifluoroethyl)sulfonyl)propan-2-yl)-2-(trifluoromethyl)benzamide] showed a mortality at 50 µg/cm2 [1] of 50 to 100% and a mortality at 50 µg/cm2 [2] of 50 to 100%.

For C[C@H](C[S+]([O-])CC(F)(F)F)NC(=O)c1ccc(/C(F)=C/C(c2ccc(Cl)c(Cl)c2)C(F)(F)F)cc1Br (stereo partly drawn) [F66, 2-Bromo-4-((Z)-3-(3,4-dichlorophenyl)-1,4,4,4-tetrafluorobut-1-en-1-yl)-N-((2R)-1-((2,2,2-trifluoroethyl)sulfinyl)propan-2-yl)benzamide], the mortality at 50 µg/cm2 [1] was 50 to 100% and the mortality at 50 µg/cm2 [2] was 50 to 100%.

C[C@H](CS(=O)(=O)CC(F)(F)F)NC(=O)c1ccc(/C(F)=C/C(c2ccc(Cl)c(OC(F)(F)F)c2)C(F)(F)F)cc1C(F)(F)F (stereo partly drawn) [F127, 4-((Z)-3-(4-Chloro-3-(trifluoromethoxy)phenyl)-1,4,4,4-tetrafluorobut-1-en-1-yl)-N—((R)-1-((2,2,2-trifluoroethyl)sulfonyl)propan-2-yl)-2-(trifluoromethyl)benzamide] showed a mortality at 50 µg/cm2 [1] of 50 to 100% and a mortality at 50 µg/cm2 [2] of 50 to 100%.

Cc1cc(/C(F)=C/C(c2cc(Cl)c(Cl)c(Cl)c2)C(C)(F)F)ccc1C(=O)N[C@H](C)CSCC(F)(F)F (stereo partly drawn) [F13, 2-Methyl-4-((Z)-1,4,4-trifluoro-3-(3,4,5-trichlorophenyl)pent-1-en-1-yl)-N—((R)-1-((2,2,2-trifluoroethyl)thio)propan-2-yl)benzamide] showed a mortality at 50 µg/cm2 [1] of 50 to 100% and a mortality at 50 µg/cm2 [2] of 50 to 100%.

Work on C[C@H](CS(=O)(=O)CC(F)(F)F)NC(=O)c1ccc(/C(F)=C/C(c2ccc(OC(F)(F)F)c(Cl)c2)C(F)(F)F)cc1C(F)(F)F (stereo partly drawn) [F109, 4-((Z)-3-(3-Chloro-4-(trifluoromethoxy)phenyl)-1,4,4,4-tetrafluorobut-1-en-1-yl)-N—((R)-1-((2,2,2-trifluoroethyl)sulfonyl)propan-2-yl)-2-(trifluoromethyl)benzamide] yielded a mortality at 50 µg/cm2 [1] of 50 to 100% and a mortality at 50 µg/cm2 [2] of 50 to 100%.
